These results are taken from US11154563B2, “Immunoproteasome inhibitors” (Principia Biopharma Inc., priority 2017, dated 2021).

The target in experiment [1] is immunoproteasome LMP7/B5i subunit (Homo sapiens, UniProt P20618+P28062). As to the kind of experiment: Caliper-based proteasome enzymatic activity assay, LMP7. Particulars: human recombinant immunoproteasome 0.3 nM, FAM-peptide substrate 1 μM, 3 h at rt. Type of experiment: biochemical. As for the experimental part: (§1) A Caliper-based proteasome assay (Caliper Life Sciences, Hopkinton, Mass.) was used to measure inhibition of the immunoproteasome LMP7/B5i subunit, the immunoproteasome LPM2/β1i subunit, and the constitutive proteasome β5c unit for a compound of Formula (I). For LMP7 and β5c, serial dilutions of test compounds were incubated with either human recombinant immunoprotcasome or constitutive proteasome (0.3 nM enzyme) and a carboxyfluorescein (FAM)-labeled peptide substrate FAM-TYETFKSIMKKSPF-NH2 (1 μM) at it for 3 h. The reaction was then terminated with a buffer containing the known proteasome inhibitor carfilzomib at a concentration of 5 uM. For LMP2, serial dilutions of test compounds were incubated with human recombinant immunoproteasome proteasome (0.3 nM enzyme) and a carboxyfluorescein (FAM)-labeled peptide substrate FAM-[…]-NH2 (1 μM) at rt for 2 h. The reaction was then terminated with a buffer containing the known proteasome inhibitor ixazomib at a concentration of 6.7 uM. The reaction buffer was 20 mM Hepes pH 7.4, 0.01% bovine serum albumin, 0.015% SDS, 0.5 mM EDTA, 1%0/DMSO. The peptide cleavage reaction product was quantified on a Caliper LabChip 3000. Percent inhibition was calculated for each compound dilution and the concentration that produced 50% inhibition was calculated. This value is presented as the IC50.

The target in experiment [2] is constitutive proteasome β5c unit (Homo sapiens, UniProt P20618+P28074). Kind of experiment: Caliper-based proteasome enzymatic activity assay, β5c. It is filed as biochemical. The settings on record: human recombinant constitutive proteasome 0.3 nM, FAM-peptide substrate 1 μM, 3 h at rt; read-out: β5c subunit IC50. As for the experimental part:
as §1

Molecules are shown by their SMILES.

`CC(C)(C=C(C#N)C(=O)N1CCCCC[C@@H]1COC(=O)N[C@@H](Cc1coc2ccccc12)B(O)O)N1CCOCC1` [Example 63, ((R)-2-(benzofuran-3-yl)-1-(((((R)-1-(2-cyano-4-methyl-4-morpholinopent-2-enoyl)-azepan-2-yl)methoxy)carbonyl)amino)ethyl)boronic acid]: the IC50 (commonly the concentration at which inhibition is half-maximal) in experiment [1] was determined as 0.0014 µM; in experiment [2], 0.23 µM.
In the same order, the values of `CC(C)(C=C(C#N)C(=O)N1C[C@@H]2C[C@@H]2[C@@H]1COC(=O)N[C@@H](Cc1coc2ccccc12)B(O)O)N1CCC(F)(F)C1` [Example 54, ((R)-2-(benzofuran-3-yl)-1-(((((1S,2R,5R)-3-(2-cyano-4-(3,3-difluoropyrrolidin-1-yl)-4-methylpent-2-enoyl)-3-azabicyclo[3.1.0]hexan-2-yl)methoxy)carbonyl)amino)ethyl)boronic acid] are 0.0016 µM and 0.192 µM.
`CC(C)(C=C(C#N)C(=O)N1CCCC[C@@H]1COC(=O)N[C@@H](Cc1ccc(F)cc1F)B(O)O)N1CCC(F)(F)C1` [Example 113, ((R)-1-(((((R)-1-(2-cyano-4-(3,3-difluoropyrrolidin-1-yl)-4-methylpent-2-enoyl)piperidin-2-yl)methoxy)carbonyl)amino)-2-(2,4-difluorophenyl)ethyl)boronic acid]: the IC50 in experiment [1] and in experiment [2] was above 5 µM each time.
Take `CC(C)(C=C(C#N)C(=O)N1C[C@@H]2C[C@@H]2[C@@H]1COC(=O)N[C@@H](Cc1coc2ccccc12)B(O)O)N1CCOCC1` [Example 51, ((R)-2-(benzofuran-3-yl)-1-(((((1S,2R,5R)-3-(2-cyano-4-methyl-4-morpholinopent-2-enoyl)-3-azabicyclo[3.1.0]hexan-2-yl)methoxy)carbonyl)amino)ethyl)boronic acid]: the IC50 in experiment [1] was 0.0005 µM; in experiment [2], 0.356 µM.
As for `C=CC(=O)N1C[C@@H]2C[C@@H]2[C@@H]1COC(=O)N[C@@H](Cc1coc2ccccc12)B(O)O` [Example 52, ((R)-1-(((((1S,2R,5R)-3-acryloyl-3-azabicyclo[3.1.0]hexan-2-yl)methoxy)carbonyl)amino)-2-(benzofuran-3-yl)ethyl)boronic acid], the values for the concentration for half-maximal inhibition (IC50) in experiment [1] and in experiment [2] were 0.0013 µM and 0.336 µM, respectively.
In the same order, the values of `C=CC(=O)N1C[C@@H]2C[C@@H]2[C@@H]1COC(=O)N[C@@H](Cc1ccc(C)cc1)B(O)O` [Example 95, ((R)-1-(((((1S,2R,5R)-3-acryloyl-3-azabicyclo[3.1.0]hexan-2-yl)methoxy)carbonyl)amino)-2-(p-tolyl)ethyl)boronic acid] are 0.037 µM and 3.39 µM.
In the same order, the values of `C[C@H]1CC[C@H](COC(=O)N[C@@H](Cc2coc3ccccc23)B(O)O)N1C(=O)C(C#N)=CC(C)(C)N1CCOCC1` [Example 57, ((R)-2-(benzofuran-3-yl)-1-(((((2R,5S)-1-(2-cyano-4-methyl-4-morpholinopent-2-enoyl)-5-methylpyrrolidin-2-yl)methoxy)carbonyl)amino)ethyl)boronic acid] are 0.0014 µM and 0.176 µM.
In the same order, the values of `CC(C)(C=C(C#N)C(=O)N1CCCC[C@@H]1COC(=O)N[C@@H](Cc1ccccc1C(F)(F)F)B(O)O)N1CCC(F)(F)C1` [Example 110, ((R)-1-(((((R)-1-(2-cyano-4-(3,3-difluoropyrrolidin-1-yl)-4-methylpent-2-enoyl)piperidin-2-yl)methoxy)carbonyl)amino)-2-(2-(trifluoromethyl)phenyl)ethyl)boronic acid] are 0.022 µM and above 5 µM.
`COC(=O)N1CCN(C(C)(C)C=C(C#N)C(=O)N2CCCC[C@@H]2COC(=O)N[C@@H](Cc2ccccc2)B(O)O)CC1` [Example 125, ((R)-1-(((((R)-1-(2-cyano-4-(4-(methoxycarbonyl)piperazin-1-yl)-4-methylpent-2-enoyl)piperidin-2-yl)methoxy)carbonyl)amino)-2-phenylethyl)boronic acid]: the concentration for half-maximal inhibition (IC50) in experiment [1] is 0.0016 µM; in experiment [2], 2.86 µM.
For the compound `CN1CCN(C(C)(C)C=C(C#N)C(=O)N2CCC[C@@H]2COC(=O)N[C@@H](Cc2coc3ccccc23)B(O)O)CC1` [Example 55, ((R)-2-(benzofuran-3-yl)-1-(((((R)-1-(2-cyano-4-methyl-4-(4-methylpiperazin-1-yl)pent-2-enoyl)pyrrolidin-2-yl)methoxy)carbonyl)amino)ethyl)boronic acid], the IC50 in experiment [1] is 0.0025 µM; in experiment [2], 0.225 µM.
In the case of `COc1cccc(C[C@H](NC(=O)OC[C@H]2CCCCN2C(=O)C(C#N)=CC(C)(C)C)B(O)O)c1` [Example 77, ((R)-1-(((((R)-1-(2-cyano-4,4-dimethylpent-2-enoyl)piperidin-2-yl)methoxy)carbonyl)amino)-2-(3-methoxyphenyl)ethyl)boronic acid], the values for the 50% inhibitory concentration (IC50) in experiment [1] and in experiment [2] were 0.013 µM and above 5 µM, respectively.
On the same counts, the results for `C=CC(=O)N1C[C@H](F)C[C@@H]1COC(=O)N[C@@H](Cc1ccccc1)B(O)O` [Example 89, ((R)-1-(((((2R,4R)-1-acryloyl-4-fluoropyrrolidin-2-yl)methoxy)carbonyl)amino)-2-phenylethyl)boronic acid] are 0.073 µM and 1.85 µM.
`Cc1ccc(C[C@H](NC(=O)OC[C@H]2[C@H]3C[C@H]3CN2C(=O)C(C#N)=CC2(C)CCOCC2)B(O)O)cc1` [Example 92, ((R)-1-(((((1S,2R,5R)-3-(2-cyano-3-(4-methyltetrahydro-2H-pyran-4-yl)acryloyl)-3-azabicyclo[3.1.]hexan-2-yl)methoxy)carbonyl)amino)-2-(p-tolyl)ethyl)boronic acid]: the results for the IC50 in experiment [1] and in experiment [2] were 0.0019 µM and 2.24 µM, respectively.
As for `CC(C)(C=C(C#N)C(=O)N1CCCCC[C@H]1COC(=O)N[C@@H](Cc1coc2ccccc12)B(O)O)N1CCOCC1` [Example 64, ((R)-2-(benzofuran-3-yl)-1-(((((S)-1-(2-cyano-4-methyl-4-morpholinopent-2-enoyl)azepan-2-yl)methoxy)carbonyl)amino)ethyl)boronic acid], the IC50 in experiment [1] was 0.0033 µM; in experiment [2], 0.645 µM.
In the same order, the values of `COc1cccc(C[C@H](NC(=O)OC[C@H]2CCCCN2C(=O)C(C#N)=CC(C)(C)N2CCC(F)(F)C2)B(O)O)c1` [Example 96] are 0.0027 µM and above 5 µM.
In the case of `Cc1ccc(C[C@H](NC(=O)OC[C@H]2CCCCN2C(=O)C(C#N)=CC(C)(C)N2CCOCC2)B(O)O)cc1` [Example 45, ((R)-1-(((((R)-1-(2-cyano-4-methyl-4-morpholinopent-2-enoyl)piperidin-2-yl)methoxy)carbonyl)amino)-2-(p-tolyl)ethyl)boronic acid], the half-inhibitory concentration (IC50) came to 0.004 µM in experiment [1] and 0.854 µM in experiment [2].
With `CN(CC(F)F)C(C)(C)C=C(C#N)C(=O)N1CCCC[C@@H]1COC(=O)N[C@@H](Cc1ccccc1)B(O)O` [Example 80, ((R)-1-(((((R)-1-(2-cyano-4-((2,2-difluoroethyl)(methyl)amino)-4-methylpent-2-enoyl)piperidin-2-yl)methoxy)carbonyl)amino)-2-phenylethyl)boronic acid], the IC50 in experiment [1] was found to be 0.002 µM; in experiment [2] it was 1.51 µM.
On the same counts, the results for `CC(C)(C=C(C#N)C(=O)N1CCCC[C@@H]1COC(=O)N[C@@H](Cc1coc2ccccc12)B(O)O)N1CCCC(F)(F)C1` [Example 62, ((R)-2-(benzofuran-3-yl)-1-(((((R)-1-(2-cyano-4-(3,3-difluoropiperidin-1-yl)-4-methylpent-2-enoyl)piperidin-2-yl)methoxy)carbonyl)amino)ethyl)boronic acid] are 0.0016 µM and 0.205 µM.
In the same order, the values of `CC(C)(C=C(C#N)C(=O)N1CCC[C@@H]1COC(=O)N[C@@H](Cc1coc2ccccc12)B(O)O)N1CCC(F)(F)C1` [Example 42, ((R)-2-(benzofuran-3-yl)-1-(((((R)-1-(2-cyano-4-(3,3-difluoropyrrolidin-1-yl)-4-methylpent-2-enoyl)pyrrolidin-2-yl)methoxy)carbonyl)amino)ethyl)boronic acid] are 0.0005 µM and 0.141 µM.
On the same counts, the results for `CC(C)(C=C(C#N)C(=O)N1CCCC[C@@H]1COC(=O)N[C@@H](Cc1coc2ccccc12)B(O)O)N1CCC(F)(F)CC1` [Example 66, ((R)-2-(benzofuran-3-yl)-1-(((((R)-1-(2-cyano-4-(4,4-difluoropiperidin-1-yl)-4-methylpent-2-enoyl)piperidin-2-yl)methoxy)carbonyl)amino)ethyl)boronic acid] are 0.0021 µM and 0.217 µM.
On to `CC(C)(C=C(C#N)C(=O)N1CCOC[C@@H]1COC(=O)N[C@@H](CCc1ccccc1)B(O)O)N1CCC(F)(F)C1` [Example 98, ((R)-1-(((((R)-4-(2-cyano-4-(3,3-difluoropyrrolidin-1-yl)-4-methylpent-2-enoyl)morpholin-3-yl)methoxy)carbonyl)amino)-3-phenylpropyl)boronic acid], for which the results for the IC50 in experiment [1] and in experiment [2] were 0.0035 µM and 3.27 µM, respectively.
